The results in this text go back to PMC10198183 (Frontiers in drug discovery, 2022).

One data set has as its system C. glabrata. The data set can be described thus: Broth microdilution susceptibility test (CLSI M27-A4), C. glabrata. The data set is classed as cell-based. The settings on record: RPMI 1640, 30 °C, 24–48 h, mean of triplicate; for MIC: read-out: MIC75 C. glabrata. The method, then: (§1) Broth microdilution susceptibility test: The minimum inhibitory concentrations (MIC75) were determined by the broth microdilution method according to the Clinical and Laboratory Standards Institute (CLSI) M27-A4 standard ([CLSI, 2017])). Briefly, a suspension of C. albicans or C. glabrata culture (~0.5–2.5 × 10^3 cells/ml) was resuspended in RPMI 1640 media (Fisher Catalog number 11875093). The resuspended culture was further incubated with 100 μl of two-fold serially diluted test compounds (100–0.8 μM and 1.0 μM to 7 nM) at 30 °C for 24–48 h. Positive and negative control (wells without antifungal agents and wells without yeast) were conducted. Increased optical density (OD) corresponds to the Candida growth and was quantified by comparison with untreated Candida control samples. The MIC75 of test compounds was determined visually and spectrophotometrically (OD600) after 24–48 h. Experiments were run in triplicate, and data was reported as a mean.
For orientation: Dilution methods test growth across graded concentrations, often in twofold steps.

The subject of another data set is C. albicans. The data set can be described thus: Broth microdilution susceptibility test (CLSI M27-A4), C. albicans. The note with it: RPMI 1640, 30 °C, 24–48 h, mean of triplicate; for MIC: read-out: MIC75 C. albicans. The data set is classed as cell-based. As to the method: as §1
A further data set addresses human Cyp3A4 (Homo sapiens, UniProt P08684). The note with it: for pIC50: read-out: CYP 3A4 IC50, human Cyp3A4 supersomes, 2 μM midazolam, 30 min at 37°C.

The structures appear in SMILES notation. pIC50: −log10 of the molar value. Converted amounts (≈) assume the structure as drawn. Like-named read-outs stand apart in the source and are kept apart here.

Chain of human Cyp3A4 (P08684 2-503 limits assumed): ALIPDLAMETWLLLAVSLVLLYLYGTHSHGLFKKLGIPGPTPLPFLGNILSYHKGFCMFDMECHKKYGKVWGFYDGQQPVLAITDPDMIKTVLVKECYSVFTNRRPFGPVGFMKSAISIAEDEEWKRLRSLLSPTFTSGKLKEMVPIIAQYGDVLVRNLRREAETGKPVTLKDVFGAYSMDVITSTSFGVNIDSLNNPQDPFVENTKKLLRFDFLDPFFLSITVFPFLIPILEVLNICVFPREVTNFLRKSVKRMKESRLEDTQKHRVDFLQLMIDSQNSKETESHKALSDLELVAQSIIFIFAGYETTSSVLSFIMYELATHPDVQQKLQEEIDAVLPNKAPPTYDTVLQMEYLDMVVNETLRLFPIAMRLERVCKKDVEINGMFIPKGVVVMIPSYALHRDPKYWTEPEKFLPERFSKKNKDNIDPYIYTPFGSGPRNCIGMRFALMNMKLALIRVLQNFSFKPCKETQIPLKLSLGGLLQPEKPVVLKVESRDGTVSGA

As for `CC(=O)N1CCN(c2ccc(OC[C@H]3CO[C@](Cn4ccnc4)(c4ccc(Cl)cc4Cl)O3)cc2)CC1` (racemic) [Entry 2, (±)-Ketoconazole, reference compound], the MIC in the data set with C. glabrata (Nakaseomyces glabratus) worked out at 0.25 µM (≈ 0.133 µg/mL); in the data set with C. glabrata, 0.5 µM (≈ 0.266 µg/mL); with C. albicans (Candida albicans), 0.25 µM (≈ 0.133 µg/mL).

Regarding `C[C@@H]1[C@H](O)[C@@H](C)/C=C/C=C/C=C/C=C/C=C/C=C/C=C/[C@H](O[C@@H]2O[C@H](C)[C@@H](O)[C@H](N)[C@@H]2O)C[C@@H]2O[C@](O)(C[C@@H](O)C[C@@H](O)[C@H](O)CC[C@@H](O)C[C@@H](O)CC(=O)O[C@H]1C)C[C@H](O)[C@H]2C(=O)O` [Amphotericin B, reference compound], the MIC in the data set on C. glabrata (Nakaseomyces glabratus) and in the data set on C. albicans (Candida albicans) was 0.25 µM (≈ 0.231 µg/mL) throughout.

Regarding `CS(=O)(=O)N1CCN(c2ccc(OC[C@@H]3CO[C@@](Cn4ccnc4)(c4ccc(Cl)cc4Cl)O3)cc2)CC1` [Entry 3a], the MIC with C. albicans is 0.125 µM (≈ 0.0709 µg/mL).

In the case of `CCS(=O)(=O)N1CCN(c2ccc(OC[C@@H]3CO[C@@](Cn4ccnc4)(c4ccc(Cl)cc4Cl)O3)cc2)CC1` [Entry 3b], the results for the MIC with C. glabrata and in the data set on C. albicans were 0.5 µM (≈ 0.291 µg/mL) and 0.125 µM (≈ 0.0727 µg/mL), respectively.

On to `CCCS(=O)(=O)N1CCN(c2ccc(OC[C@@H]3CO[C@@](Cn4ccnc4)(c4ccc(Cl)cc4Cl)O3)cc2)CC1` [Entry 3c], for which the MIC was determined as 0.5 µM (≈ 0.298 µg/mL) in the data set on C. glabrata and 0.125 µM (≈ 0.0744 µg/mL) in the data set on C. albicans. Also, the pIC50 (usually the negative decadic logarithm of the IC50, by convention in mol/L) at human Cyp3A4 is 7.12.

Take `CC(C)S(=O)(=O)N1CCN(c2ccc(OC[C@@H]3CO[C@@](Cn4ccnc4)(c4ccc(Cl)cc4Cl)O3)cc2)CC1` [Entry 3d]: the “MIC75 C. glabrata” value with C. glabrata was “complete loss of in vitro antifungal activity and N.E”. The “MIC75 C. albicans” value with C. albicans was “complete loss of in vitro antifungal activity and N.E”.

Turning to `O=S(=O)(C1CC1)N1CCN(c2ccc(OCC3COC(Cn4ccnc4)(c4ccc(Cl)cc4Cl)O3)cc2)CC1` (stereo not shown) [Entry 3e], the MIC with C. glabrata and in the data set on C. albicans was 0.8 µM (≈ 0.475 µg/mL) in each case.

On to `N#CCS(=O)(=O)N1CCN(c2ccc(OC[C@@H]3CO[C@@](Cn4ccnc4)(c4ccc(Cl)cc4Cl)O3)cc2)CC1` [Entry 3g], for which the MIC with C. glabrata turned out to be 0.5 µM (≈ 0.296 µg/mL); in the data set with C. albicans it was 0.25 µM (≈ 0.148 µg/mL).

Turning to `CS(=O)(=O)CS(=O)(=O)N1CCN(c2ccc(OC[C@@H]3CO[C@@](Cn4ccnc4)(c4ccc(Cl)cc4Cl)O3)cc2)CC1` [Entry 3h], the MIC in the data set on C. glabrata stood at 6.25 µM (≈ 4.03 µg/mL); in the data set on C. albicans, 0.8 µM (≈ 0.516 µg/mL).

As to `O=S(=O)(N1CCN(c2ccc(OC[C@@H]3CO[C@@](Cn4ccnc4)(c4ccc(Cl)cc4Cl)O3)cc2)CC1)C(F)(F)F` [Entry 3i], the MIC in the data set on C. glabrata turned out to be 1.6 µM (≈ 0.994 µg/mL); with C. albicans it was 0.8 µM (≈ 0.497 µg/mL).

For `O=S(=O)(CC(F)(F)F)N1CCN(c2ccc(OC[C@@H]3CO[C@@](Cn4ccnc4)(c4ccc(Cl)cc4Cl)O3)cc2)CC1` [Entry 3j], the MIC with C. glabrata amounted to 0.8 µM (≈ 0.508 µg/mL); in the data set on C. albicans, 1.6 µM (≈ 1.02 µg/mL). In addition, the pIC50 on human Cyp3A4 was 6.35.

Regarding `O=S(=O)(CCC(F)(F)F)N1CCN(c2ccc(OC[C@@H]3CO[C@@](Cn4ccnc4)(c4ccc(Cl)cc4Cl)O3)cc2)CC1` [Entry 3k], in the data set on C. glabrata, the “MIC75 C. glabrata” value was “no effect and N.E”. Further, the pIC50 on human Cyp3A4 is 6.60. In addition, the MIC in the data set with C. albicans worked out at 1.6 µM (≈ 1.04 µg/mL).

As to `O=S(=O)(CC(F)F)N1CCN(c2ccc(OC[C@@H]3CO[C@@](Cn4ccnc4)(c4ccc(Cl)cc4Cl)O3)cc2)CC1` [Entry 3l], the MIC with C. glabrata worked out at 0.25 µM (≈ 0.154 µg/mL); in the data set with C. albicans it was 0.062 µM (≈ 0.0383 µg/mL). The “improvement in selectivity (Cyp3A4 versus C. albicans) relative to (±)-Ketoconazole (2)” value on human Cyp3A4 (3l versus 2) is 5 fold. Also, the “window between Cyp3A4 inhibition and activity against C. albicans” value on human Cyp3A4 (Cyp3A4 IC50 versus C. albicans MIC75) worked out at 2.6 fold. Besides, the pIC50 at human Cyp3A4 was 6.79.

Regarding `CC(=O)N1CCN(c2ccc(OC[C@@H]3CO[C@@](Cn4ccnc4)(c4ccc(Cl)cc4Cl)O3)cc2)CC1` [Entry 4, (2S, 4R)-Ketoconazole, reference compound], the MIC in the data set with C. glabrata (Nakaseomyces glabratus) was 0.5 µM (≈ 0.266 µg/mL); in the data set with C. albicans (Candida albicans), 0.125 µM (≈ 0.0664 µg/mL).
